Like-named read-outs stand apart in the source and are kept apart here.

Common to all, as to assay type: cell-based
One experiment has as its system HT-29 cells. Put plainly: Cell proliferation assay (CellTiter Glo), HT-29. The conditions noted are these: Homo sapiens, HT-29, 72 h, read-out: HT-29 IC50. Here is the method: (§1) IC50 values were calculated and graphed using the model “log(inhibitor) vs. response—Variable slope” included in GraphPad Prism 5 (San Diego, CA). The Ki values were further calculated using the equation below where [L] was the radioligand concentration (1 nM) using in this study. Kd value was 0.332 nM. Ki=IC50/(1+[L]/Kd) c. AR transactivation: Human AR cloned into a CMV vector backbone was used for the transactivation study. HEK-293 cells were plated at 80,000 cells per well of a 24 well plate in DME+5% csFBS. Twenty four hours later, the cells were transfected using Lipofectamine (Invitrogen, Carlsbad, CA) with 0.25 μg GRE-LUC, 0.01 μg CMV-LUC (renilla luciferase) and 25 ng of the AR in OPTIMEM medium. The cells were treated 24 hrs after transfection with various ligands (10^−12 to 10^−5 M final concentrations) and luciferase assay were performed 48 hours after transfection. Firefly values were normalized to renilla luciferase values and the values were represented as relative light units (RLU). Agonist and antagonist assays for the test article were performed in the absence and in the combination with 0.1 nM R1881, respectively. Data were represented as EC50 (for agonists) and IC50 (for antagonists) obtained from four parameter logistics curve. Cell culture and proliferation assays: LNCaP, PC-3, 22RV1, MCF-7, HT-29, and HCT-116 cells were procured from American Type Culture Collection (ATCC). Cells were cultured in medium recommended by the ATCC. Cell culture medium was obtained from Fisher scientific (Waltham, MA) and serum was obtained from Hyclone (San Angelo, TX).
Cells were plated at varying density in the respective growth medium in 96 well plates. 24 hr later, cells were treated, in triplicate or quadruplicate, with test articles prepared in a range of concentrations by series dilution of DMSO stock solutions in growth medium and incubated for three to seven days. The number of viable 22RV1 and HT-29 cells was measured using CellTiter Glo assay (CTG, Promega, Madison, WI) after three days of treatment. The other types of cancer cells were re-treated at three or four days and the number of viable cells was measured using CTG assay after a total treatment time of six or seven days. Cell viability data were plotted using GraphPad Prism (GraphPad Software, Inc., San Diego, CA). In addition, a nonlinear regression model with a sigmoidal dose response and variable slope within GraphPad Prism was used to calculate the IC50 value of individual test articles. Additional cell proliferation assays: Other cancer cell lines are tested in a cell proliferation assay. For example, SK-OV-3 or OVCAR3 ovarian cancer cells are tested. Cells are cultured in medium recommended by the supplier (e.g., ATCC or JCRB Cell Bank), at 37° C. in a 5% CO2 environment. For the proliferation assay, cells are plated in the growth medium in 96 well plates. Seeding density is adjusted according to the cell type. 24 hr later, cells are treated, in triplicate or quadruplicate, with test articles prepared in a range of concentrations by series dilution of DMSO stock solutions in growth medium, and typically incubated for three to seven days, with test article-containing medium replaced after three or four days. The number of viable cells is measured using CellTiter Glo assay (CTG, Promega, Madison, WI) or similar. Cell viability data are plotted using GraphPad Prism (GraphPad Software, Inc., San Diego, CA). In addition, a nonlinear regression model with a sigmoidal dose response and variable slope within GraphPad Prism is used to calculate the IC50 value of individual test articles. Similarly, HEK-293 and HeLa calls can also be tested by methods known in the art. • f. Nuclear translocation: LNCaP cells are plated on coverslips in 24 well plates in growth medium. Twenty-four hours after plating, medium is changed to RPMI+1% csFBS and the cells are maintained in this medium for two days. Medium is replaced again and the cells are treated. […]
(In general: Cellular ATP, detected with luciferase, serves as a proxy for viable cell number.)

The next experiment deals with MCF-7 cells. Put plainly: Cell proliferation assay (CellTiter Glo), MCF-7. The conditions noted are these: Homo sapiens, MCF7, 168 h; cell growth inhibition, six or seven days total treatment. How it is done:
as §1
Cells were plated at varying density in the respective growth medium in 96 well plates. […] The number of viable 22RV1 and HT-29 cells was measured using CellTiter Glo assay (CTG, Promega, Madison, WI) after three days of treatment. The other types of cancer cells were re-treated at three or four days and the number of viable cells was measured using CTG assay after a total treatment time of six or seven days. […] The number of viable cells is measured using CellTiter Glo assay (CTG, Promega, Madison, WI) or similar. […]

The target of the next experiment is T1, Human AR (Homo sapiens, UniProt P10275).
T1 construct: expressed in transfected cells; host or cells: HEK-293
T1 sequence (P10275 1-920): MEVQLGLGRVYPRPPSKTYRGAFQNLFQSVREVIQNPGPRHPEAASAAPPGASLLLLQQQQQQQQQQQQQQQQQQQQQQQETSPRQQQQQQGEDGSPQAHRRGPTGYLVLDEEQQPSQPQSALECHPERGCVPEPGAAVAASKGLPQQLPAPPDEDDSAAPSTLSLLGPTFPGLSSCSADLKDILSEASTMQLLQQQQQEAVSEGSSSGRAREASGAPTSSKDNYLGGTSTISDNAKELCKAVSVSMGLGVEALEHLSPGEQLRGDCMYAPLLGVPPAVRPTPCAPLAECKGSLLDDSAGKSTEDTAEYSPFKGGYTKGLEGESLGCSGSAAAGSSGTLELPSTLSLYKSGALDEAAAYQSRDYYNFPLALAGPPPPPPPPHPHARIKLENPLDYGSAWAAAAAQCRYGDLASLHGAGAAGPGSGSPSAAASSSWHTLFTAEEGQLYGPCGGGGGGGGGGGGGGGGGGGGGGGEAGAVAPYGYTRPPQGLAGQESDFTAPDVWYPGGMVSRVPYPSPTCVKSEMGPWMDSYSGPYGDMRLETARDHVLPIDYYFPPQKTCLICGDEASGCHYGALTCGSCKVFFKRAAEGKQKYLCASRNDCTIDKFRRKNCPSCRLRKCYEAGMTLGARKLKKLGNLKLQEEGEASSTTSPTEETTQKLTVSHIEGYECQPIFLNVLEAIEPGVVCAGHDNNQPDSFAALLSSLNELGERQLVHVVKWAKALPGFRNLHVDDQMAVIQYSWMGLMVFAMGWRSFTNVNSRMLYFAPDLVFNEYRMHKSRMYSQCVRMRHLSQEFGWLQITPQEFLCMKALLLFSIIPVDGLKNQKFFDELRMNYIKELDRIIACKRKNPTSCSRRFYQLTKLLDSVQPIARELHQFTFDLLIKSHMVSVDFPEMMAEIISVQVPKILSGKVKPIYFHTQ
Put plainly: AR transactivation (antagonist mode, GRE-LUC luciferase in HEK-293 cells). The following applies: in combination with 0.1 nM R1881, read-out: AR Ant. IC50. Here is the method: as §1

[1] abbreviates: cell growth inhibition, three days of treatment.

In the case of `C[C@]12CCC(=O)C[C@@H]1CC[C@@H]1[C@@H]2CC[C@]2(C)[C@@H](OCCCCCC(=O)N3CCN(C(=O)c4cc(Cc5n[nH]c(=O)c6ccccc56)ccc4F)CC3)CC[C@@H]12` [Compound 1.2, 4-(3-(4-(6-(((5S,8R,9S,10S,13S,14S,17S)-10,13-dimethyl-3-oxohexadecahydro-1H-cyclopenta[a]phenanthren-17-yl)oxy)hexanoyl)piperazine-1-carbonyl)-4-fluorobenzyl)phthalazin-1(2H)-one], the IC50 in the experiment on HT-29 cells is greater than 10 µM.
For the compound `CCC(=C(c1ccc(O)cc1)c1ccc(OCCN2CCN(C(=O)c3cc(Cc4n[nH]c(=O)c5ccccc45)ccc3F)CC2)cc1)c1ccccc1` [Compound 2.14, 4-(4-fluoro-3-(4-(2-(4-(1-(4-hydroxyphenyl)-2-phenylbut-1-enyl)phenoxy)ethyl)piperazine-1-carbonyl)benzyl)pthalazin-1(2H)-one], the values for the half-maximal inhibitory concentration (IC50) in the experiment with HT-29 cells (setting [1]) and in the experiment with MCF-7 cells were greater than 30 µM and 9.3 µM, respectively.
As to `C[C@](O)(CS(=O)(=O)c1ccc(NCCCCCC(=O)N2CCN(C(=O)c3cc(Cc4n[nH]c(=O)c5ccccc45)ccc3F)CC2)cc1)C(=O)Nc1ccc(C#N)c(C(F)(F)F)c1` [Compound 1.68, (R)-N-(4-cyano-3-(trifluoromethyl)phenyl)-3-(4-(6-(4-(2-fluoro-5-((4-oxo-3,4-dihydrophthalazin-1-yl)methyl)benzoyl)piperazin-1-yl)-6-oxohexylamino)phenylsulfonyl)-2-hydroxy-2-methylpropanamide], the IC50 is 3.3 µM on Human AR and greater than 10 µM in the experiment on HT-29 cells.
For the compound `CN(CCCCCC(=O)N1CCN(C(=O)c2cc(Cc3n[nH]c(=O)c4ccccc34)ccc2F)CC1)CCOc1ccc(C(=O)c2c(-c3ccc(O)cc3)sc3cc(O)ccc23)cc1` [Compound 2.4, 4-(4-fluoro-3-(4-(6-((2-(4-(6-hydroxy-2-(4-hydroxyphenyl)benzo[b]thiophene-3-carbonyl)phenoxy)ethyl)(methyl)amino)hexanoyl)piperazine-1-carbonyl)benzyl)phthalazin-1(2H)-one], the IC50 with MCF-7 cells was 11 µM.
As to `CC1(C)C(=O)N(c2ccc(C#N)c(C(F)(F)F)c2)C(=S)N1c1ccc(C(=O)NCCCCCCNCc2ccc(-c3[nH]c4cc(F)cc5c4c3CCNC5=O)cc2)c(F)c1` [Compound 1.5, 4-(3-(4-cyano-3-(trifluoromethyl)phenyl)-5,5-dimethyl-4-oxo-2-thioxoimidazolidin-1-yl)-2-fluoro-N-(6-((4-(8-fluoro-1-oxo-2,3,4,6-tetrahydro-1H-azepino[5,4,3-cd]indol-5-yl)benzyl)amino)hexyl)benzamide], the figures for the IC50 on Human AR and in the experiment with HT-29 cells were 0.75 µM and 5 µM, respectively.
Consider `C[C@]12CCC(=O)C[C@@H]1CC[C@@H]1[C@@H]2CC[C@]2(C)[C@@H](OCC(=O)N3CCN(C(=O)c4cc(Cc5n[nH]c(=O)c6ccccc56)ccc4F)CC3)CC[C@@H]12` [Compound 1.110, 4-(3-(4-(2-((5S,8R,9S,10S,13S,14S,17S)-10,13-dimethyl-3-oxohexadecahydro-1H-cyclopenta[a]phenanthren-17-yloxy)acetyl)piperazine-1-carbonyl)-4-fluorobenzyl)phthalazin-1(2H)-one], for which, in the experiment on HT-29 cells (setting [1]), the IC50 is 9.5 µM.
In the case of `O=C(c1ccc(OCCN2CCN(C(=O)c3cc(Cc4n[nH]c(=O)c5ccccc45)ccc3F)CC2)cc1)c1c(-c2ccc(O)cc2)sc2cc(O)ccc12` [Compound 2.13, 4-(4-fluoro-3-(4-(2-(4-(6-hydroxy-2-(4-hydroxyphenyl)benzo[b]thiophene-3-carbonyl)phenoxy)ethyl)piperazine-1-carbonyl)benzyl)phthalazin-1(2H)-one], the values for the 50% inhibitory concentration (IC50) with HT-29 cells (setting [1]) and with MCF-7 cells were 6 µM and 3.6 µM, respectively.
Take `CC1(C)C(=O)N(c2ccc(C#N)c(C(F)(F)F)c2)C(=S)N1c1ccc(C(=O)NCCCCCC(=O)N2CCN(C(=O)c3cc(Cc4n[nH]c(=O)c5ccccc45)ccc3F)CC2)c(F)c1` [Compound 1.1, 4-(3-(4-cyano-3-(trifluoromethyl)phenyl)-5,5-dimethyl-4-oxo-2-thioxoimidazolidin-1-yl)-2-fluoro-N-(6-(4-(2-fluoro-5-((4-oxo-3,4-dihydrophthalazin-1-yl)methyl)benzoyl)piperazin-1-yl)-6-oxohexyl)benzamide]: the IC50 at Human AR was 0.033 µM; in the experiment with HT-29 cells it was 0.3 µM.
In the case of `C[C@](O)(COc1ccc(NCCCCCC(=O)N2CCN(C(=O)c3cc(Cc4n[nH]c(=O)c5ccccc45)ccc3F)CC2)cc1)C(=O)Nc1ccc(C#N)c(C(F)(F)F)c1` [Compound 1.83, (S)-N-(4-cyano-3-(trifluoromethyl)phenyl)-3-(4-(6-(4-(2-fluoro-5-((4-oxo-3,4-dihydrophthalazin-1-yl)methyl)benzoyl)piperazin-1-yl)-6-oxohexylamino)phenoxy)-2-hydroxy-2-methylpropanamide], in the experiment on HT-29 cells, the half-maximal inhibitory concentration (IC50) was greater than 10 µM.
On to `CC(O)(CS(=O)(=O)c1ccc(NCCn2cc(CN3CCN(C(=O)c4cc(Cc5n[nH]c(=O)c6ccccc56)ccc4F)CC3)nn2)cc1)C(=O)Nc1ccc(C#N)c(C(F)(F)F)c1` (stereo in doubt) [Compound 1.97, (S)-N-(4-cyano-3-(trifluoromethyl)phenyl)-3-(4-(2-(4-((4-(2-fluoro-5-((4-oxo-3,4-dihydrophthalazin-1-yl)methyl)benzoyl)piperazin-1-yl)methyl)-1H-1,2,3-triazol-1-yl)ethylamino)phenylsulfonyl)-2-hydroxy-2-methylpropanamide], for which, in the experiment on HT-29 cells, the 50% inhibitory concentration (IC50) is greater than 30 µM.
As to `C[C@]12CCC(=O)C[C@@H]1CC[C@@H]1[C@@H]2CC[C@]2(C)[C@@H](OCCOCC(=O)N3CCN(C(=O)c4cc(Cc5n[nH]c(=O)c6ccccc56)ccc4F)CC3)CC[C@@H]12` [Compound 1.104, 4-(3-(4-(2-(2-((5S,8R,9S,10S,13S,14S,17S)-10,13-dimethyl-3-oxohexadeca hydro-1H-cyclopenta[a]phenanthren-17-yloxy)ethoxy)acetyl)piperazine-1-carbonyl)-4-fluorobenzyl)phthalazin-1(2H)-one], the IC50 in the experiment on HT-29 cells (setting [1]) was determined as 9.3 µM.

By IC50 is commonly meant the concentration at which inhibition is half-maximal.

For the origin of these results see patent publication US12398121B2 (Nuvation Bio Inc., priority 2018, dated 2025).
